Source: US11897880B2, “7,8-dihydrobenzo[e]pyrido[3,4-c]azocine-2,5(3H,6H)-dione derivatives useful as a factor XIa inhibitors” (Janssen Pharmaceutica NV, priority 2021, dated 2024)
Like-named read-outs stand apart in the source and are kept apart here.

Columns and labels:
Factor XIa = Factor XIa (Homo sapiens, UniProt P03951); assay: Factor XIa inhibition assay utilizing a fluorophore-quencher pair peptide substrate (FLINT); assay type: biochemical; settings: for IC50: read-out: FXIa IC50; for Ki: read-out: FXIa Ki
Procedure, shortened: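 Enzyme preincubated 30 min at room temperature with compound (11-point 3-fold dilution, top 100 nM, 2% DMSO), then 15 μM 5Fam-KLTRAETV-K5Tamra substrate added. Buffer: 50 mM Tris pH 7.5, 100 mM NaCl, 5 mM CaCl2, 0.1 mg/mL BSA, 0.03% CHAPS. Fluorescence (485/520 nm) read kinetically over 30 min; IC50 from 4-parameter logistic fit.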

human plasma kallikrein = human plasma kallikrein (Homo sapiens, UniProt P03952); assay: Kallikrein inhibition assay utilizing a quenched AMC peptide substrate (FLINT); assay type: biochemical; settings: 30 min preincubation, 50 μM Z-Gly-Pro-Arg-AMC, 2 nM kallikrein
Procedure, shortened: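 Human plasma kallikrein (2 nM final) was preincubated 30 min at room temperature with compound (11-point 3-fold dilution, top 1 μM, 2% DMSO) in pH 7.5 Tris buffer with CaCl2, BSA and CHAPS. Z-Gly-Pro-Arg-AMC (50 μM final) fluorescence was read at 340/440 nm every 5 min for 30 min. IC50 came from a 4-parameter logistic fit.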

[1] = 30 min preincubation, 5Fam-KLTRAETV-K5Tamra substrate 15 μM final, kinetic reads
[2] = cells that print μM themselves in the nM column
[3] = cells that print μM themselves in the nM column, same assay conditions

human plasma kallikrein, sequence (P03952 391-638 limits assumed): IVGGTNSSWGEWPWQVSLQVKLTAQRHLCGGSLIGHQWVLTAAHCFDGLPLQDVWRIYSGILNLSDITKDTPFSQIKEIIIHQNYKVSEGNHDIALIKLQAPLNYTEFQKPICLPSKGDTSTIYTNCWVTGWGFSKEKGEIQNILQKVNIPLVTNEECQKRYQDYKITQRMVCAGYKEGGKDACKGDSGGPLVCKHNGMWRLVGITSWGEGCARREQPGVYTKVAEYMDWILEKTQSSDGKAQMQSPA
human plasma kallikrein, sequence (P03952 20-390 partner limits assumed): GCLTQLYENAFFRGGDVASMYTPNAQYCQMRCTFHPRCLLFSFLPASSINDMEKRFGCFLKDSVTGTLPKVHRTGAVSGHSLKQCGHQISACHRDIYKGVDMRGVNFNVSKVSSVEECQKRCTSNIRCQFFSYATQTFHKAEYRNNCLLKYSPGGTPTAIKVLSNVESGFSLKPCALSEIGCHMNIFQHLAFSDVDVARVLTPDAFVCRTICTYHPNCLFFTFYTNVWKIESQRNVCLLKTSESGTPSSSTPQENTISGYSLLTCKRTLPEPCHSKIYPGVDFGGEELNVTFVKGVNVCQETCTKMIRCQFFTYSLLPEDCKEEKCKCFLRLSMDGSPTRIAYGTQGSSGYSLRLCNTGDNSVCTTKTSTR
Factor XIa, sequence (P03951 388-625 limits assumed): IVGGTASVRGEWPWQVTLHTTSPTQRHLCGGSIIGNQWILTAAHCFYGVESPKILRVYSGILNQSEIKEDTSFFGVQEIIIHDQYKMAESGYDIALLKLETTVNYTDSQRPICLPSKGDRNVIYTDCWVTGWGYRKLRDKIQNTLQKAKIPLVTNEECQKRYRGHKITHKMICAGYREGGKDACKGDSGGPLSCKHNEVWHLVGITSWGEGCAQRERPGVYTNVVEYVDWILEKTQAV
Factor XIa, sequence (P03951 19-387 partner limits assumed): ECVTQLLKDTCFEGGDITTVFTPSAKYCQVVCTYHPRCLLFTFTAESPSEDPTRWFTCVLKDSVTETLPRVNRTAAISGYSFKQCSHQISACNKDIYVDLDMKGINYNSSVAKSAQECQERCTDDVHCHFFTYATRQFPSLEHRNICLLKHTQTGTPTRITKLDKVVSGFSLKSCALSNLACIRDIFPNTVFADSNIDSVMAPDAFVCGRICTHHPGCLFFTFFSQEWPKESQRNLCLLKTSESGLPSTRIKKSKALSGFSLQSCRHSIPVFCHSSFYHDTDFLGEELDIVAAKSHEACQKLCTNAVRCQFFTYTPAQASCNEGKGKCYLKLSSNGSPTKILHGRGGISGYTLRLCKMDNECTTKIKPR

Row | SMILES | IC50 (Factor XIa; [1]) [µM] | Ki (Factor XIa) [µM] | IC50 (human plasma kallikrein) [µM] | Ki (Factor XIa; [2]) [µM] | IC50 (Factor XIa; [3]) [µM]
1 | O=C1NC2(CC2)Cc2ccc(Cl)c(F)c2-c2cc(=O)n3c(c21)CC[C@H]3c1ncc(-c2ccn3c(Br)cnc3c2)[nH]1 (single isomer, unassigned) [Compound 71, (*S)-12-(5-(3-Bromoimidazo[1,2-a]pyridin-7-yl)-1H-imidazol-2-yl)-7-chloro-8-fluoro-13,14-dihydro-2H-spiro[benzo[5,6]azocino[4,3-g]indolizine-3,1′-cyclopropane]-1,10(4H,12H)-dione] | – | – | > 10 | > 5 | > 10
2 | Cc1nc2cc(-c3cnc([C@@H]4CCc5c6c(cc(=O)n54)-c4c(ccc(Cl)c4F)CC4(CC4)NC6=O)[nH]3)ccc2s1 (stereo in doubt) [Compound 4, (S*)-7-chloro-8-fluoro-12-(5-(2-methylbenzo[d]thiazol-5-yl)-1H-imidazol-2-yl)-13,14-dihydro-2H-spiro[benzo[5,6]azocino[4,3-g]indolizine-3,1′-cyclopropane]-1,10(4H,12H)-dione] | – | – | > 10 | 1.15 | 2.29
3 | Cc1nc2cc(-c3cnc([C@H]4CCc5c6c(cc(=O)n54)-c4c(ccc(Cl)c4F)CC4(CC4)NC6=O)[nH]3)ccc2s1 (stereo in doubt) [Compound 5, (R*)-7-chloro-8-fluoro-12-(5-(2-methylbenzo[d]thiazol-5-yl)-1H-imidazol-2-yl)-13,14-dihydro-2H-spiro[benzo[5,6]azocino[4,3-g]indolizine-3,1′-cyclopropane]-1,10(4H,12H)-dione] | 0.0021 | 0.001 | 0.06 | – | –
4 | O=C1NC2(CC2)Cc2ccc(Cl)c(F)c2-c2cc(=O)n3c(c21)CC[C@@H]3c1ncc(-c2ccc3[nH]cnc3c2)[nH]1 (stereo in doubt) [Compound 6, (R*)-12-(5-(1H-benzo[d]imidazol-5-yl)-1H-imidazol-2-yl)-7-chloro-8-fluoro-13,14-dihydro-2H-spiro[benzo[5,6]azocino[4,3-g]indolizine-3,1′-cyclopropane]-1,10(4H,12H)-dione] | 0.0006 | 0.0003 | 0.06 | – | –
5 | O=C1NC2(CC2)Cc2ccc(Cl)c(F)c2-c2cc(=O)n3c(c21)CC[C@H]3c1ncc(-c2ccn3ccnc3c2)[nH]1 (stereo in doubt) [Compound 7, (S*)-7-chloro-8-fluoro-12-(5-(imidazo[1,2-a]pyridin-7-yl)-1H-imidazol-2-yl)-13,14-dihydro-2H-spiro[benzo[5,6]azocino[4,3-g]indolizine-3,1′-cyclopropane]-1,10(4H,12H)-dione] | 0.0023 | 0.0011 | 0.42 | – | –
6 | O=C1NC2(CC2)Cc2ccc(Cl)c(F)c2-c2cc(=O)n3c(c21)CC[C@@H]3c1ncc(-c2ccn3ccnc3c2)[nH]1 (stereo in doubt) [Compound 8, (R*)-7-chloro-8-fluoro-12-(5-(imidazo[1,2-a]pyridin-7-yl)-1H-imidazol-2-yl)-13,14-dihydro-2H-spiro[benzo[5,6]azocino[4,3-g]indolizine-3,1′-cyclopropane]-1,10(4H,12H)-dione] | 0.0019 | 0.0009 | 0.47 | – | –
7 | O=C1NC2(CC2)Cc2ccc(Cl)c(F)c2-c2cc(=O)n3c(c21)CC[C@@H]3c1ncc(-c2ccc3[nH]ncc3c2)[nH]1 (stereo in doubt) [Compound 19, (R*)-12-(5-(1H-indazol-5-yl)-1H-imidazol-2-yl)-7-chloro-8-fluoro-13,14-dihydro-2H-spiro[benzo[5,6]azocino[4,3-g]indolizine-3,1′-cyclopropane]-1,10(4H,12H)-dione] | 0.001 | 0.0005 | 0.02 | – | –
8 | O=C1NC2(CC2)Cc2ccc(Cl)c(F)c2-c2cc(=O)n3c(c21)CC[C@@H]3c1ncc(-c2ccc3cncn3c2)[nH]1 (stereo in doubt) [Compound 22, (R*)-7-chloro-8-fluoro-12-(5-(imidazo[1,5-a]pyridin-6-yl)-1H-imidazol-2-yl)-13,14-dihydro-2H-spiro[benzo[5,6]azocino[4,3-g]indolizine-3,1′-cyclopropane]-1,10(4H,12H)-dione] | – | – | > 10 | 2.54 | 5.07
9 | O=C1NC2(CC2)Cc2ccc(Cl)c(F)c2-c2cc(=O)n3c(c21)CC[C@H]3c1ncc(-c2ccc3cncn3c2)[nH]1 (stereo in doubt) [Compound 23, (S*)-7-chloro-8-fluoro-12-(5-(imidazo[1,5-a]pyridin-6-yl)-1H-imidazol-2-yl)-13,14-dihydro-2H-spiro[benzo[5,6]azocino[4,3-g]indolizine-3,1′-cyclopropane]-1,10(4H,12H)-dione] | 0.007 | 0.0035 | 0.54 | – | –
10 | COCCN1C(=O)c2c(cc(=O)n3c2CC[C@@H]3c2ncc(-c3ccc(N)nc3F)[nH]2)-c2c(ccc(Cl)c2F)CC12CC2 (stereo in doubt) [Compound 24, (R*)-12-(5-(6-amino-2-fluoropyridin-3-yl)-1H-imidazol-2-yl)-7-chloro-8-fluoro-2-(2-methoxyethyl)-13,14-dihydro-2H-spiro[benzo[5,6]azocino[4,3-g]indolizine-3,1′-cyclopropane]-1,10(4H,12H)-dione] | > 0.01 | – | > 10 | > 5 | –
11 | COCCN1C(=O)c2c(cc(=O)n3c2CC[C@H]3c2ncc(-c3ccc(N)nc3F)[nH]2)-c2c(ccc(Cl)c2F)CC12CC2 (stereo in doubt) [Compound 25, (S*)-12-(5-(6-amino-2-fluoropyridin-3-yl)-1H-imidazol-2-yl)-7-chloro-8-fluoro-2-(2-methoxyethyl)-13,14-dihydro-2H-spiro[benzo[5,6]azocino[4,3-g]indolizine-3,1′-cyclopropane]-1,10(4H,12H)-dione] | 0.26 | 0.13 | > 10 | – | –

The remaining lines, values ahead:

Row | IC50 (Factor XIa; [1]) [µM] | Ki (Factor XIa) [µM] | IC50 (human plasma kallikrein) [µM] | Ki (Factor XIa; [2]) [µM] | IC50 (Factor XIa; [3]) [µM] | SMILES
12 | 0.183 | 0.0917 | > 10 | – | – | O=C1NC2(CC2)Cc2ccc(Cl)c(F)c2-c2cc(=O)n(C(CC3CC3)c3ncc(-c4ccncc4)[nH]3)cc21 (single isomer, unassigned) [Compound 66, (R*)-11-chloro-3-(2-cyclopropyl-1-(5-(pyridin-4-yl)-1H-imidazol-2-yl)ethyl)-12-fluoro-3H-spiro[benzo[e]pyrido[3,4-c]azocine-7,1′-cyclopropane]-2,5(6H,8H)-dione]
13 | 0.0129 | 0.0064 | 1.39 | – | – | O=C1NC2(CC2)Cc2ccc(Cl)c(F)c2-c2cc(=O)n([C@@H](CC3CC3)c3ncc(-c4ccncc4)[nH]3)cc21 (single isomer, unassigned) [Compound 67, (S*)-11-chloro-3-(2-cyclopropyl-1-(5-(pyridin-4-yl)-1H-imidazol-2-yl)ethyl)-12-fluoro-3H-spiro[benzo[e]pyrido[3,4-c]azocine-7,1′-cyclopropane]-2,5(6H,8H)-dione]
14 | – | – | > 10 | 1.12 | 2.24 | Cn1ccc(-c2cnc(C(CC3CC3)n3cc4c(cc3=O)-c3c(ccc(Cl)c3F)CC3(CC3)NC4=O)[nH]2)cc1=O (single isomer, unassigned) [Compound 68, (R*)-11-chloro-3-(2-cyclopropyl-1-(5-(1-methyl-2-oxo-1,2-dihydropyridin-4-yl)-1H-imidazol-2-yl)ethyl)-12-fluoro-3H-spiro[benzo[e]pyrido[3,4-c]azocine-7,1′-cyclopropane]-2,5(6H,8H)-dione]
15 | 0.108 | 0.0541 | 8.08 | – | – | Cn1ccc(-c2cnc([C@H](CC3CC3)n3cc4c(cc3=O)-c3c(ccc(Cl)c3F)CC3(CC3)NC4=O)[nH]2)cc1=O (single isomer, unassigned) [Compound 69, (S*)-11-chloro-3-(2-cyclopropyl-1-(5-(1-methyl-2-oxo-1,2-dihydropyridin-4-yl)-1H-imidazol-2-yl)ethyl)-12-fluoro-3H-spiro[benzo[e]pyrido[3,4-c]azocine-7,1′-cyclopropane]-2,5(6H,8H)-dione]
16 | 0.0267 | 0.0133 | 3.54 | – | – | O=C1NC2(CC2)Cc2ccc(Cl)c(F)c2-c2cc(=O)n3c(c21)CCC3c1ncc(-c2ccn3c(Br)cnc3c2)[nH]1 (single isomer, unassigned) [Compound 72, (*R)-12-(5-(3-Bromoimidazo[1,2-a]pyridin-7-yl)-1H-imidazol-2-yl)-7-chloro-8-fluoro-13,14-dihydro-2H-spiro[benzo[5,6]azocino[4,3-g]indolizine-3,1′-cyclopropane]-1,10(4H,12H)-dione]
17 | – | – | > 10 | 2.91 | 5.82 | O=C1NC2(CC2)Cc2ccc(Cl)c(F)c2-c2cc(=O)n3c(c21)CC[C@H]3c1ncc(-c2ccn3cnnc3c2)[nH]1 (stereo in doubt) [Compound 15, (S*)-12-(5-([1,2,4]triazolo[4,3-a]pyridin-7-yl)-1H-imidazol-2-yl)-7-chloro-8-fluoro-13,14-dihydro-2H-spiro[benzo[5,6]azocino[4,3-g]indolizine-3,1′-cyclopropane]-1,10(4H,12H)-dione]
18 | 0.0132 | 0.0066 | 0.82 | – | – | O=C1NC2(CC2)Cc2ccc(Cl)c(F)c2-c2cc(=O)n3c(c21)CC[C@@H]3c1ncc(-c2ccn3cnnc3c2)[nH]1 (stereo in doubt) [Compound 18, (R*)-12-(5-([1,2,4]triazolo[4,3-a]pyridin-7-yl)-1H-imidazol-2-yl)-7-chloro-8-fluoro-13,14-dihydro-2H-spiro[benzo[5,6]azocino[4,3-g]indolizine-3,1′-cyclopropane]-1,10(4H,12H)-dione]
